Measurements from PMC12797170, “Potent Competitive Inhibitors of Ecto-5′-nucleotidase (CD73) based on 6‑(Het)aryl-7-deazapurine Ribonucleoside 5′‑O‑Bisphosphonates” (ACS Pharmacology & Translational Science, 2025).
Where two headings read alike, the source gives them in different places.

Legend:
[1] = Plasma protein binding, mouse plasma; format: in vitro ADME; settings: mouse, plasma
CYP1A2 = target: T1, CYP1A2 (Homo sapiens, UniProt P05177); assay: In vitro CYP450 inhibition assay (Vivid); format: biochemical; settings: probe fluorogenic Vivid CYP450 substrate (not named)
T1 construct: assay run by Bienta (Enamine Biology Services)
T1 sequence (P05177 2-516 limits assumed): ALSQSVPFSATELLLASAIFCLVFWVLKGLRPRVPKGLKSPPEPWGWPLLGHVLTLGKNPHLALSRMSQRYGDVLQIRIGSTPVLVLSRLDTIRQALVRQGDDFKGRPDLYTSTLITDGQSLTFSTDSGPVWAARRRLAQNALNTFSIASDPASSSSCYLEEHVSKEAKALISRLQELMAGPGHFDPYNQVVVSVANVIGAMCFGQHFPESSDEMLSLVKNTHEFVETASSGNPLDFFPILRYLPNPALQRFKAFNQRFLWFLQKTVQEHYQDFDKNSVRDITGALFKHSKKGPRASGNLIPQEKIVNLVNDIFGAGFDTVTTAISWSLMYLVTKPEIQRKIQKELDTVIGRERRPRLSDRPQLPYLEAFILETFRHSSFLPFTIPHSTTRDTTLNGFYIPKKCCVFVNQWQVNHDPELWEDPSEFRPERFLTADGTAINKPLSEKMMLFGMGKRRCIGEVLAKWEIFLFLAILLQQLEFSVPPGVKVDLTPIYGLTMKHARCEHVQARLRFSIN
Procedure: (§1) The study was performed by Bienta (Enamine Biology Services). The potential for CYP450 inhibition (isoforms 1A2, 2C9, 2C19, 2D6, and 3A4) was assessed by performing in vitro inhibition studies using fluorogenic CYP450 substrates with the corresponding CYP450 enzymes and NADPH regeneration system (Vivid CYP450 Screening Kits) with some minor changes to the manufacturer’s protocols. The fluorescent signal produced from the reaction is directly proportional to the cytochrome P450 activity. In the cases when tested compounds interfere with the CYP450 enzyme–substrate reaction, the fluorescent signal decreases.
(§2) Briefly, the tested compounds were first dissolved in DMSO at 100× concentration (1 mM) and diluted in buffer to 2.5× concentration (25 μM). […] After 10 min of preincubation, the enzymatic reaction was initiated by the addition of a mix of NADPH and the appropriate CYP450 substrates. The plate was incubated for the desired reaction time (25 min for CYP1A2, CYP2C9, CYP2D6, and CYP3A4; 60 min for CYP2C19) after which Stop Reagent was added and fluorescence measured using SpectraMax Paradigm Multi-Mode Microplate Reader. All test points were performed in quadruplicates at a concentration of 10 μM (1% DMSO).

CYP2C19 = target: T2, CYP2C19 (Homo sapiens, UniProt P33261); assay: In vitro CYP450 inhibition assay (Vivid); format: biochemical; settings: probe fluorogenic Vivid CYP450 substrate (not named)
T2 construct: assay run by Bienta (Enamine Biology Services)
T2 sequence (P33261 whole entry): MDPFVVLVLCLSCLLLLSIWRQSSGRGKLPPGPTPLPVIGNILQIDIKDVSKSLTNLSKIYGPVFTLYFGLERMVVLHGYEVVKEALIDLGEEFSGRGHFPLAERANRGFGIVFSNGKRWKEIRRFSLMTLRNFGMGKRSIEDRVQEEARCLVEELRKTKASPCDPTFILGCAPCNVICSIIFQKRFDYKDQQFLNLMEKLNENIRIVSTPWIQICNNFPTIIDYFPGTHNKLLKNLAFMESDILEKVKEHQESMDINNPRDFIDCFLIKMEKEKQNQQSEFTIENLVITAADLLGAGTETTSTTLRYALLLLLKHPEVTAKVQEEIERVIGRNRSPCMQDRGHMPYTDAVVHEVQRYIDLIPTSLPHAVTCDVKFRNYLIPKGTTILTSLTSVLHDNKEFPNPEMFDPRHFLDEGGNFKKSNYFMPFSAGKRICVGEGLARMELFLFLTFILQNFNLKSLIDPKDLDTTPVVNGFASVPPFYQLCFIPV
Procedure: as §1, §2

CYP2C9 = target: T3, CYP2C9 (Homo sapiens, UniProt P11712); assay: In vitro CYP450 inhibition assay (Vivid); format: biochemical; settings: probe fluorogenic Vivid CYP450 substrate (not named)
T3 construct: assay run by Bienta (Enamine Biology Services)
T3 sequence (P11712 whole entry): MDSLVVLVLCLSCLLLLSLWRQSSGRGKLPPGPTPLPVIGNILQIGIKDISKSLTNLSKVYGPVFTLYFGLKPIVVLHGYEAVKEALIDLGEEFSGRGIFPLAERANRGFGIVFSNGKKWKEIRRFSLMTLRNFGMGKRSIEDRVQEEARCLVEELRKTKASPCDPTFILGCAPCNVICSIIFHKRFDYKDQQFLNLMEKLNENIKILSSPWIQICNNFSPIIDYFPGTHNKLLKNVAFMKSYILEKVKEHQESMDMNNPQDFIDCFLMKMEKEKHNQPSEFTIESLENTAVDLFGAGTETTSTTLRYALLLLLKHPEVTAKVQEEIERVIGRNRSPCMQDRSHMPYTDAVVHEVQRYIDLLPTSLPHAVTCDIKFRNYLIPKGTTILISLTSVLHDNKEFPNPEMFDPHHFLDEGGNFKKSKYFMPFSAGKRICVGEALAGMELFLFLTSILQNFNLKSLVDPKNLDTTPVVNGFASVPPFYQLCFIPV
Procedure: as §1, §2

CYP2D6 = target: T4, CYP2D6 (Homo sapiens, UniProt P10635); assay: In vitro CYP450 inhibition assay (Vivid); format: biochemical; settings: probe fluorogenic Vivid CYP450 substrate (not named)
T4 construct: assay run by Bienta (Enamine Biology Services)
T4 sequence (P10635 whole entry): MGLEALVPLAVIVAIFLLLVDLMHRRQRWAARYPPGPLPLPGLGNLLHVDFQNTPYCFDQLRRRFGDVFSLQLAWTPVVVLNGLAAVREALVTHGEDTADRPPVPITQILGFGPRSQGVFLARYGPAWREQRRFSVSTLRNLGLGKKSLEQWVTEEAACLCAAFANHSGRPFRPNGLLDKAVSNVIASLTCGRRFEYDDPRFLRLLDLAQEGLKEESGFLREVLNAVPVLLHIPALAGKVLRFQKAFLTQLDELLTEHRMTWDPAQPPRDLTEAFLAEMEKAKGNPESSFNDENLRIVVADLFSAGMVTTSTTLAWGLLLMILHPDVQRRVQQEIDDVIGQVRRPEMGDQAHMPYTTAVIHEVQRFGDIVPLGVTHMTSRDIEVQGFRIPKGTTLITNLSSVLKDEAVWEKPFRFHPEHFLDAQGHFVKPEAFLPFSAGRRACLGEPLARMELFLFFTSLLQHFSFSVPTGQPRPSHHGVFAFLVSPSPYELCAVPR
Procedure: as §1, §2

CYP3A4 = target: T5, CYP3A4 (Homo sapiens, UniProt P08684); assay: In vitro CYP450 inhibition assay (Vivid); format: biochemical; settings: probe fluorogenic Vivid CYP450 substrate (not named)
T5 construct: assay run by Bienta (Enamine Biology Services)
T5 sequence (P08684 2-503 limits assumed): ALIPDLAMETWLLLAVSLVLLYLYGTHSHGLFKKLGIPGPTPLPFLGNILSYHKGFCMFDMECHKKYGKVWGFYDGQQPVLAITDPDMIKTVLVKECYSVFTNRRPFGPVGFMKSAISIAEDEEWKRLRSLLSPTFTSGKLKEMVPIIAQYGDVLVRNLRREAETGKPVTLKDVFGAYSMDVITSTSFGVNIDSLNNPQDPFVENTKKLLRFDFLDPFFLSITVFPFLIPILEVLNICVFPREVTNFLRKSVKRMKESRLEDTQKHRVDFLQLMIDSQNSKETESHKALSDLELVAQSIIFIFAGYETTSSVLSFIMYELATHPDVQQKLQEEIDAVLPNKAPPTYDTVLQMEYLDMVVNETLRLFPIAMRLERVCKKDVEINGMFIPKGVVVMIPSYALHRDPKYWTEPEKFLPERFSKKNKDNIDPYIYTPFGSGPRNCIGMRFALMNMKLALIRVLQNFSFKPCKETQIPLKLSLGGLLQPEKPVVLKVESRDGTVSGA
Procedure: as §1, §2

CCRF-CEM = assay: In vitro cytotoxic activity; format: cell-based; settings: Homo sapiens
Procedure: (§3) All the compounds were also tested for their in vitro cytotoxic activity on a small panel of four cancer cell lines (CCRF-CEM, HepG2, HeLa S3, HL-60) and nonmalignant human dermal fibroblasts (NHDF).

HL-60 = assay: In vitro cytotoxic activity; format: cell-based; settings: Homo sapiens
Procedure: as §3

HeLa S3 = assay: In vitro cytotoxic activity; format: cell-based; settings: Homo sapiens
Procedure: as §3

HepG2 = assay: In vitro cytotoxic activity; format: cell-based; settings: Homo sapiens
Procedure: as §3

[2] = system: nonmalignant human dermal fibroblasts (NHDF); assay: In vitro cytotoxic activity; format: cell-based
Procedure: as §3

[3] = system: panel of CYP isoforms (1A2, 2C9, 2C19, 2D6, and 3A4); assay: CYP450 inhibition, panel statement; format: biochemical, human; settings: up to 50 μM
Procedure: as §1, §2

in vitro [4] = settings: human, plasma
in vitro [5] = settings: mouse, plasma
[6] = mouse plasma protein binding, read-out: PPB (m) (converted)
[7] = Tables 2 and 4, mouse plasma, read-out: fup, fraction unbound in mouse plasma

SMILES | fraction unbound at 4 h, 100 µM [1, 6] | inhibition at 25 min, 10 µM (CYP1A2) | inhibition at 60 min, 10 µM (CYP2C19) | inhibition at 25 min, 10 µM (CYP2C9) | inhibition at 25 min, 10 µM (CYP2D6) | inhibition at 25 min, 10 µM (CYP3A4) | IC50 (CCRF-CEM) | IC50 (HL-60) | IC50 (HeLa S3) | IC50 (HepG2) | IC50 [2] | inhibition of a panel of CYP isoforms [3] | half-life at 10 µM (in vitro [4]) | half-life at 10 µM (in vitro [5]) | fraction unbound at 4 h, 100 µM [1, 7]
O=P(O)(O)CP(=O)(O)OC[C@H]1O[C@@H](n2ccc3c(-c4ccc5ccccc5c4)ncnc32)[C@H](O)[C@@H]1O [4A.7] | 0.315 | 7% | 10% | 23% | -17% | -7% | > 10 µM | > 10 µM | > 10 µM | > 10 µM | > 10 µM | no inhibition | > 2 h | > 2 h | 
O=P(O)(O)CP(=O)(O)OC[C@H]1O[C@@H](n2ccc3c(-c4cccc5ccncc45)ncnc32)[C@H](O)[C@@H]1O [4A.18] | 0.727 | 7% | 3% | 11% | -10% | -3% | > 10 µM | > 10 µM | > 10 µM | > 10 µM | > 10 µM | no inhibition | > 2 h | > 2 h | 
O=P(O)(O)CP(=O)(O)OC[C@H]1O[C@@H](n2ccc3c(-c4cccc5c4CCCC5)nc(Cl)nc32)[C@H](O)[C@@H]1O [7B.12] | 0.216 | 0% | 10% | 15% | -13% | -8% | > 10 µM | > 10 µM | > 10 µM | > 10 µM | > 10 µM | no inhibition | > 2 h | > 2 h | 0.22
O=P(O)(O)CP(=O)(O)OC[C@H]1O[C@@H](n2ccc3c(-c4ccc5c(c4)CCCC5)nc(Cl)nc32)[C@H](O)[C@@H]1O [7B.23] | 0.059 | -17% | 3% | 21% | 6% | -23% | > 10 µM | 5.7 µM | > 10 µM | 9.3 µM | > 10 µM | no inhibition | > 2 h | > 2 h | 0.06
O=P(O)(O)CP(=O)(O)OC[C@H]1O[C@@H](n2ccc3c(-c4ccc(F)c5ccccc45)nc(Cl)nc32)[C@H](O)[C@@H]1O [7B.28] | 0.232 | 9% | 22% | 24% | -6% | 9% | > 10 µM | > 10 µM | > 10 µM | > 10 µM | > 10 µM | no inhibition | > 2 h | > 2 h | 0.23
Cc1nc(-c2cccc3ccccc23)c2ccn([C@@H]3O[C@H](COP(=O)(O)CP(=O)(O)O)[C@@H](O)[C@H]3O)c2n1 [18E.6] | 0.515 | 8% | -20% | 12% | -18% | 0% | > 10 µM | > 10 µM | > 10 µM | > 10 µM | > 10 µM | no inhibition | > 2 h | > 2 h | 0.51
Cc1nc(-c2ccc3ccccc3c2)c2ccn([C@@H]3O[C@H](COP(=O)(O)CP(=O)(O)O)[C@@H](O)[C@H]3O)c2n1 [18E.7] | 0.221 |  |  |  |  |  | > 10 µM | > 10 µM | > 10 µM | > 10 µM | > 10 µM |  | > 2 h | > 2 h | 0.22
O=P(O)(O)CP(=O)(O)OC[C@H]1O[C@@H](n2ccc3c(-c4ccc5c(c4)CCCC5)nc(I)nc32)[C@H](O)[C@@H]1O [27H.23, [(5-{[2-Iodo-4-(5,6,7,8-tetrahydronaphthalen-2-yl)-7H-pyrrolo[2,3-d]pyrimidin-7-yl]-β-D-ribofuranosyl}oxy)phosphonomethyl]phosphonic Acid] | 0.036 | -4% | -7% | 11% | -12% | -23% | > 10 µM | > 10 µM | > 10 µM | > 10 µM | > 10 µM | no inhibition | > 2 h | > 2 h | 
